Patent US9657064B2, “Cell penetrating peptides” (UNIVERSITE DE GENEVE, priority 2012, dated 2017)

Columns and labels:
[1] = system: ovalbumin CD8+ epitope specific immune response; experiment: In vivo vaccination of mice with different CPP-OVA fusion polypeptides, Pentamer staining in blood (Example 5); conditions: for Fold increase in proliferation compared to CPP14: 10 nmol s.c. twice at 14 days of interval, with anti-CD40 and poly-IC, relative to CPP14-OVA reference
Protocol: The experiment was performed as described in Example 3.
Four to eight mice per group were vaccinated twice subcutaneously at 14 days of interval with 10 nmol of fusion polypeptides comprising one of the CPPs indicated in Table 2 fused to the ovalbumin CD8^+ epitope (SEQ ID NO: 3) flanked by the spacers of SEQ ID NO: 11 and SEQ ID NO: 12 at the N-terminal and C-terminal part of the CD8^+ epitope, respectively. Each CPP-OVA fusion polypeptide was injected in PBS with 100 μg anti-CD40. 50 μg poly-IC was injected intramuscularly 7 days after the second vaccination. Immune response was monitored in the blood with a Pentamer staining followed by flow cytometry analysis.
The results are presented in Table 3 as fold increase relative to a CPP-OVA fusion polypeptide of reference comprising CPP14 of SEQ ID NO: 22.

[2] = system: human lymphoid cells K562; experiment: In vitro transduction of fluorescein-labeled CPP-OVA fusion polypeptides, flow cytometry; assay type: cell-based; conditions: 0.9 μM, 2 h at 37° C., ratio of mean fluorescence index between cells alone and loaded cells
Protocol: (§1) Transduction into cells was monitored using different CPP-OVA fusion polypeptides comprising CPP1, CPP2, CPP8, or CPP10. Each of these CPPs fused with the immunodominant CD8^+ T cell epitope from ovalbumin were chemically synthesized and labeled with fluorescein. 5.10^5 cells were incubated for 2 h at 37° C. with 0.9 μM of the different fusion polypeptides. The cells tested were human lymphoid cells K562, murine lymphoid cells EL4, human astrocytoma cells U251 and murine astrocytoma cells GL261. The cells were washed in an acid buffer to remove all the membrane bound peptide and stained for viability with Live-Dead Yellow. Analysis was performed by flow cytometry. The index of fluorescence indicates the level of fluorescence above the natural auto-fluorescence of the cells. It is the ratio of the mean fluorescence index measured by flow cytometry between the cells alone and the cells loaded with CPP-OVA fusion polypeptides.

[3] = system: murine lymphoid cells EL4; experiment: as above; assay type: cell-based; conditions: 0.9 μM, 2 h at 37° C., ratio of mean fluorescence index between cells alone and loaded cells
Protocol: as §1

[4] = system: human astrocytoma cells U251; experiment: as above; assay type: cell-based; conditions: 0.9 μM, 2 h at 37° C., ratio of mean fluorescence index between cells alone and loaded cells
Protocol: as §1

[5] = system: murine astrocytoma cells GL261; experiment: as above; assay type: cell-based; conditions: 0.9 μM, 2 h at 37° C., ratio of mean fluorescence index between cells alone and loaded cells
Protocol: as §1

[6] = system: ovalbumin-specific CD8+ T cells; experiment: Vaccination of mice with CPP-OVA fusion polypeptides, multimer staining of splenocytes (Example 3); assay type: in vivo; conditions: 2 s.c. vaccinations at 14 days of interval, 20 μg fusion polypeptide + 100 μg anti-CD40, 50 μg poly-IC i.m., PBS control 0.18%
Protocol: Mice were vaccinated twice sub-cutaneously at 14 days of interval with 20 μg of each CPPs-OVA fusion polypeptides and 100 μg anti-CD40, 50 μg poly-IC was injected intramuscularly 10 days after the boost, the mice were sacrificed and the splenocytes stained with a multimer and anti-CD8. Negative control with PBS (A); CPP1-OVA (B); CPP2-OVA (C).
To test the capacity of the polypeptides corresponding to constructs 1 and 2 to stimulate antigen-specific CD8^+ T cells in more stringent conditions, they were tested in vivo in a vaccination protocol (FIG. 2). In order to elicit an in vivo response, the polypeptide vaccine must be taken up by naturally present antigen presenting cells in the injected animal, and stimulation of polyclonal T cells must be highly efficient if ovalbumin-specific T cells are to be detected ex vivo. The read-out for these experiments was flow cytometry of splenocytes, using MHC-peptide multimers to detect ovalbumin-specific CD8^+ T cells.

Sequence	immunogenic potential compared to the reference fusion polypeptide comprising CPP14 ([1]; 10 nmol s.c. twice)	Fold increase in proliferation compared to CPP14 [1]	index of fluorescence [2]	index of fluorescence [3]	index of fluorescence [4]	index of fluorescence [5]	CD8+ T cells multimer positive (ovalbumin-specific CD8+ T cells) [6]
KRYKNRVA [CPP7, 8-amino acid-long fragment of Zebra, positions 178 to 185; negative control, tested as CPP-OVA fusion, reference compound]	lower immunogenic potential	0.65	–	–	–	–	–
REVAAAKSSENDRLRLLLK [CPP10]	–	2.17	3.7	4	4	1.9	–
QHYREVAAAKSSEND [CPP8]	–	1.28	1.9	2.5	2	1.4	–
KRYKNRVASRKSRAKFKQLLQHYREVAAAK [CPP2]	–	1.41	15	57.7	25.1	20.8	–
KRYKNRVASRKSRAKFK (CCP1) [CPP1]	–	1.74	3	4.8	4.5	2.4	–
KRYKNRVASRKSRAKFKQLLQHYREVAAAKEQLESIINFEKLTEWT [construct 2]	–	–	–	–	–	–	over 1%
